PMC3808368 (2013)

Experiments:
[1] = system: ATP aptamer (ATP aptamer G-quadruplex) (DNA, aptamer) AACCTGGGGGAGTATTGCGGAGGAAGGT; experiment: G4-FID, thiazole orange displacement; conditions: 100 mM KCl; 50 mM Tris-HCl pH 7.0; 0.25 µM DNA; 0.5 µM thiazole orange displaced
[2] = system: ATP aptamer (ATP aptamer G-quadruplex) (DNA, aptamer) AACCTGGGGGAGTATTGCGGAGGAAGGT; experiment: fluorescence, tracer in G4-FID; conditions: 100 mM KCl, 50 mM Tris-HCl pH 7.0, 0.25 µM DNA, 0.5 µM thiazole orange
[3] = system: ssDNA (DNA, single strand) GAAATTCTTAAGTGCGATCGAG; experiment: luminescence enhancement of complex 2; conditions: 50 mM KCl; 20-25 mM Tris-HCl pH 7.0; 1 µM complex, 5 µM DNA; minimal luminescence change
[4] = system: HTS (DNA, G4) TTAGGGTTAGGGTTAGGGTTAGGG; experiment: luminescence enhancement of complex 2; conditions: 50 mM KCl; 20-25 mM Tris-HCl pH 7.0; 1 µM complex, 5 µM DNA; up to 8-fold enhancement
[5] = system: ATP aptamer duplex (ATP aptamer + complementary strand) (DNA, duplex) AACCTGGGGGAGTATTGCGGAGGAAGGT/ACCTTCCTCCGCAATACTCCCCCAGGTT; experiment: luminescence enhancement of complex 2; conditions: none added; 20 mM Tris-HCl pH 7.3, 25°C; slightly emissive without ATP
[6] = system: H21 (DNA, G4) GGGTTAGGGTTAGGGTTAGGG; experiment: luminescence enhancement of complex 2; conditions: 50 mM KCl; 20-25 mM Tris-HCl pH 7.0; 1 µM complex, 5 µM DNA; up to 8-fold enhancement

G4DC50 [1] [µM]	binding [2]	binding [3]	binding [4]	binding [5]	binding [6]	SMILES
> 6	–	–	–	–	–	[Ir+3].[c-]1ccccc1-c1ccccn1.[c-]1ccccc1-c1ccccn1.c1ccc2nc(-c3ccc4ccccc4n3)ccc2c1
–	yes	–	–	–	–	CN1C(=Cc2cc[n+](C)c3ccccc23)Sc2ccccc21
5	–	no	yes	weak	yes	[Ir+3].[c-]1ccccc1-c1nccc2ccccc12.[c-]1ccccc1-c1nccc2ccccc12.c1ccc2nc(-c3ccc4ccccc4n3)ccc2c1
